From patent US20080219917A1, “HARMONIZED WATER AND AQUEOUS SOLUTIONS” (DVB GLOBAL, priority 2007, published 2008)

How the values were obtained:
[1] = system: human dermal fibroblasts, human liver carcinoma cells (HepG2), and neuronal human astrocytes; details: same experiments (Sayes, 2004); cited from earlier work
[2] = system: Salmonella typhimurium; assay: Salmonella typhimurium reverse mutation assay (AMES test); format: cell-based
Excerpt: Toxicity test for harmonized, Modified Fullerenes has shown this substance is not cytotoxic when the material is subjected to a Salmonella typhimurium reverse mutation assay (AMES test). The Ames test is used to determine any potential mutagenic activity of the test HMF material. The HMF material was exposed to a large number of test organism in an agar plate. The agar plates were monitored for growth of revertants (organisms mutating to the wild type). The number of wild type organisms are counted to estimate the mutagenic potential of the HMF material.

Row | Substance | cytotoxicity [1] | cytotoxicity ([2]; Toxicity test, AMES test) | mutagenic potential (growth of revertants) ([2]; agar plate)
1 | C60(OH)24 [Modified Fullerenes] | no cytotoxicity | – | –
2 | [C60(OH)10-36]^Φ/φ [HMF] | – | not cytotoxic | not mutagenic
